Test results taken from patent EP0481320A1, “Novel cyclobutane derivatives” (NIPPON KAYAKU KABUSHIKI KAISHA, priority 1990, dated 1992).

System: herpes simplex 1 virus (HSV-1)
Assay: Plaque reduction test of antiviral activity in Vero cells
Assay type: cell-based
Conditions: Vero cells infected with 100-150 PFU; agar overlay with test compound; 37°C for 72 hours; plaque count
Description: Antiviral activity against herpes simplex 1 virus (HSV-1), which is a DNA virus, was tested by the following method. Vero cells (originating from kidney cells of African Green Monkey) spread in a monolayer onto 6-wells multiplate were infected with 100-150 PFU (Plaque Forming Units) of the virus. After a 1-hour adsorption period at 37°C, an agar medium (Eagle's minimum essential medium containing 1.5% agar) containing respective concentrations of the test compound (obtained in Example 4) was overlaid thereonto, and cultured in a 5% (V/V) carbon dioxide incubator at 37°C for 72 hours. The number of plaques formed was counted, from which the 50% inhibition concentration (IC₅₀) was determined.

| SMILES | IC₅₀ (µg/ml) (HSV-1) |
| --- | --- |
| CC(O)C1C(CO)CC1n1cnc2c(=O)[nH]c(N)nc21 (single isomer, unassigned) [4-1, 9-[(1β,2α,3β)-2-(1-hydroxyethyl)-3-hydroxymethyl-1-cyclobutyl]guanine-(1)] | 45.2 µg/mL |
| CC(O)C1C(CO)CC1n1cnc2c(=O)[nH]c(N)nc21 (single isomer, unassigned) [4-2, 9-[(1β,2α,3β)-2-(1-hydroxyethyl)-3-hydroxymethyl-1-cyclobutyl]guanine-(2)] | 0.163 µg/mL |
